C[N+](C)(C)C[C@H](O)CC(=O)[O-]
solubility (mole fraction)
Conditions	in acetone	in ethanol	in isopropanol	in methanol
278.15 K	7.1e-05	0.0392	0.00146	0.0962
283.15 K	8.1e-05	0.0408	0.00181	0.0982
288.15 K	9.1e-05	0.0431	0.00223	0.104
293.15 K	0.000106	0.0452	0.00271	0.111
298.15 K	0.000117	0.0483	0.0034	0.119
303.15 K	0.000131	0.0517	0.00417	0.127
308.15 K	0.000143	0.0546	0.00527	0.136
313.15 K	0.000157	0.0576	0.0063	0.144
318.15 K	0.000175	0.0607	0.00778	0.154
323.15 K	0.000195	0.0648	0.00983	0.165
328.15 K	0.00022	0.0698	0.0118	0.178
333.15 K	–	0.0747	0.0144	0.189
338.15 K	–	0.0801	–	–
343.15 K	–	0.0855	–	–
348.15 K	–	0.0919	–	–

From BigSolDB 2.1
